According to patent US8048862B2, “Macrocyclic inhibitors of hepatitis C virus replication” (priority 2008, dated 2011):
Where two headings read alike, the source gives them in different places.

What was measured:
[1] = target: NS3/NS4 complexes (Hepatitis C virus genotype 1a, UniProt P27958); assay: NS3/NS4 inhibition activity (IC50); format: biochemical
Summary of the method: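 Buffer: 50 mM Tris-HCl (pH 7.5), 10 mM DTT, 25 μM NS4A peptide, 0.6 mM LDAO and 15% glycerol. Assays were run at 23 °C with preformed NS3/NS4 complex, and the compound concentration giving inhibition was derived as an IC50.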

[2] = system: hepatitis C replicon; assay: hepatitis C replicon EC50; format: cell-based; details: Hepatitis C virus, hepatitis C replicon, read-out: EC50
Description: NS3-NS4 inhibition activity can be determined using known assay methods.

NS3/NS4 complexes, sequence (P27958 1027-1657): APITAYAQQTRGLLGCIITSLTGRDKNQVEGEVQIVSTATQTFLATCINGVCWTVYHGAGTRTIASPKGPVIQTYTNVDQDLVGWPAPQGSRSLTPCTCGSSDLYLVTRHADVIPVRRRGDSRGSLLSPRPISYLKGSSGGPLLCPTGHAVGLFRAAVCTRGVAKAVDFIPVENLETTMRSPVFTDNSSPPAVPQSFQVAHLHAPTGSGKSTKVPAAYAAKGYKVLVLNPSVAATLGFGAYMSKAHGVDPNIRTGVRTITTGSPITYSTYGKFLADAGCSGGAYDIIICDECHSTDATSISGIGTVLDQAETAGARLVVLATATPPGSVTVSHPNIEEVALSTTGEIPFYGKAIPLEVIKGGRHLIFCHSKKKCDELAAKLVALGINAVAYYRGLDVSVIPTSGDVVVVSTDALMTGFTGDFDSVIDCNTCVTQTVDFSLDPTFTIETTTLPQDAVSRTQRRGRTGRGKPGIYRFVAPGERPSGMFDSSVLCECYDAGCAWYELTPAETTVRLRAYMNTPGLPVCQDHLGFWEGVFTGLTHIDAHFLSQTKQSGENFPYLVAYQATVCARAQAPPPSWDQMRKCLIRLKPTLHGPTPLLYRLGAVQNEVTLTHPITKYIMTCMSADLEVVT
NS3/NS4 complexes, sequence (P27958 1658-1711): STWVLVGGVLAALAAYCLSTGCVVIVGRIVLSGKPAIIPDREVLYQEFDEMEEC

SMILES	IC50 ([1]; Table 3, read-out: IC50)	EC50 ([2]; Table 3)	IC50 ([1]; Table 2, read-out: IC50)	EC50 ([2]; Table 2)
CC(C)(C)OC(=O)N[C@H]1CCCCC/C=C\[C@@H]2C[C@@]2(C(=O)NS(=O)(=O)C2(C)CC2)NC(=O)[C@@H]2C[C@@H](OC(=O)N3CCCC3)CN2C1=O [Compound 1072]	< 10 nM	> 100 nM		
CC(C)(C)OC(=O)N[C@H]1CCCCC/C=C\[C@@H]2C[C@@]2(C(=O)NS(=O)(=O)C2CC2)NC(=O)[C@@H]2C[C@@H](Oc3nc4ccc(F)cc4o3)CN2C1=O [Compound 1037]	< 10 nM	> 100 nM		
COc1cccc(N[C@H]2CCCCC/C=C\[C@@H]3C[C@@]3(C(=O)NS(=O)(=O)C3(C)CC3)NC(=O)[C@@H]3C[C@@H](Oc4nc5ccccc5s4)CN3C2=O)c1 [Compound 244]			< 10 nM	10 to 75 nM
CC1(S(=O)(=O)NC(=O)[C@@]23C[C@H]2/C=C\CCCCC[C@H](Nc2cccc(F)c2)C(=O)N2C[C@H](Oc4nc5ccccc5s4)C[C@H]2C(=O)N3)CC1 [Compound 235]			< 10 nM	10 to 75 nM
COc1ccc2c(O[C@@H]3C[C@H]4C(=O)N[C@]5(C(=O)NS(=O)(=O)C6CC6)C[C@H]5/C=C\CCCCC[C@H](Nc5ccccc5)C(=O)N4C3)cc(-c3ccccc3)nc2c1 [Compound 164]			< 10 nM	< 10 nM
CC(C)(C)OC(=O)N[C@H]1CCCCC/C=C\[C@@H]2C[C@@]2(C(=O)O)NC(=O)[C@@H]2C[C@@H](Oc3nc4ccccc4s3)CN2C1=O [Compound 1001]	10 to 100 nM	> 100 nM		
CCn1c(O[C@@H]2C[C@H]3C(=O)N[C@]4(C(=O)NS(=O)(=O)C5(C)CC5)C[C@H]4/C=C\CCCCC[C@H](Nc4ccccc4)C(=O)N3C2)nc2ccccc21 [Compound 395]			< 10 nM	< 10 nM
Cc1cccc(N[C@H]2CCCCC/C=C\[C@@H]3C[C@@]3(C(=O)NS(=O)(=O)C3(C)CC3)NC(=O)[C@@H]3C[C@@H](OC(=O)N4Cc5cccc(F)c5C4)CN3C2=O)c1 [Compound 1103]	< 10 nM	< 10 nM		
COc1ccc2c(O[C@@H]3C[C@H]4C(=O)N[C@]5(C(=O)NS(=O)(=O)N6CCCCC6)C[C@H]5/C=C\CCCCC[C@H](Nc5ccccc5)C(=O)N4C3)cc(-c3nc(C(C)C)cs3)nc2c1C [Compound 456]			< 10 nM	10 to 75 nM
CC1(S(=O)(=O)NC(=O)[C@@]23C[C@H]2/C=C\CCCCC[C@H](Nc2ccc(F)c(F)c2)C(=O)N2C[C@H](Oc4nccc5ccccc45)C[C@H]2C(=O)N3)CC1 [Compound 381]			< 10 nM	10 to 75 nM
CC(C)(C)OC(=O)N[C@H]1CCCCC/C=C\[C@@H]2C[C@@]2(C(=O)NS(=O)(=O)C2CC2)NC(=O)[C@@H]2C[C@@H](Oc3nc4ccc(Cl)cc4s3)CN2C1=O [Compound 1018]	< 10 nM	10 to 100 nM		
CC(C)n1c(O[C@@H]2C[C@H]3C(=O)N[C@]4(C(=O)NS(=O)(=O)N(C)C)C[C@H]4/C=C\CCCCC[C@H](NC(=O)OC(C)(C)C)C(=O)N3C2)nc2cccc(F)c21 [Compound 1134]	< 10 nM	< 10 nM		
COc1ccc2c(O[C@@H]3C[C@H]4C(=O)N[C@]5(C(=O)NS(=O)(=O)N(C)C)C[C@H]5/C=C\CCCCC[C@H](Nc5ccc(F)c(C(F)(F)F)c5)C(=O)N4C3)cc(-c3nc(C(C)C)cs3)nc2c1C [Compound 459]			< 10 nM	< 10 nM
CC(C)n1c(O[C@@H]2C[C@H]3C(=O)N[C@]4(C(=O)NS(=O)(=O)N(C)C)C[C@H]4/C=C\CCCCC[C@H](Nc4cc(F)cc(C(F)(F)F)c4)C(=O)N3C2)nc2ccccc21 [Compound 391]			< 10 nM	10 to 75 nM
COc1ccc2c(O[C@@H]3C[C@H]4C(=O)N[C@]5(C(=O)NS(=O)(=O)C6CC6)C[C@H]5/C=C\CCCCC[C@H](Nc5cc(F)cc(C(F)(F)F)c5)C(=O)N4C3)cc(-c3nc(C(C)C)cs3)nc2c1C [Compound 439]			< 10 nM	< 10 nM
COc1cccc(N[C@H]2CCCCC/C=C\[C@@H]3C[C@@]3(C(=O)NS(=O)(=O)C3(C)CC3)NC(=O)[C@@H]3C[C@@H](OC(=O)N4Cc5cccc(F)c5C4)CN3C2=O)c1 [Compound 1104]	< 10 nM	< 10 nM		
